Data as given in US20260232629A1, “Covalent Degraders of Oncogenic Transcription Factors” (The Regents of the University of California, priority 2023, published 2026).

Key:
[1] = test system: FLAG-tagged wild-type, C439S, C466S, C520S, or C619S mutant CTNNB1; assay: Degradation of FLAG-tagged wild-type or cysteine-to-serine mutant CTNNB1 in cells; format: cell-based; conditions: FLAG-tagged CTNNB1 wild-type vs C439S
From the text: We next sought to confirm the contributions of the cysteines targeted by EN83 in CTNNB1 to CTNNB1 degradation.

[2] = target: T1, CTNNB1 with a N-terminal HiBiT tag (Homo sapiens, UniProt P35222); assay: CTNNB1 HiBiT cell line assay (Nano-Glo HiBiT lytic detection); format: cell-based; conditions: HEK293 cells expressing endogenous N-terminal HiBiT-tagged CTNNB1
T1 construct: N-terminal HiBiT tag incorporated into the endogenous loci of CTNNB1; host or cells: HEK293 (CTNNB1 HiBiT knock-in line)
T1 sequence (P35222 1-781): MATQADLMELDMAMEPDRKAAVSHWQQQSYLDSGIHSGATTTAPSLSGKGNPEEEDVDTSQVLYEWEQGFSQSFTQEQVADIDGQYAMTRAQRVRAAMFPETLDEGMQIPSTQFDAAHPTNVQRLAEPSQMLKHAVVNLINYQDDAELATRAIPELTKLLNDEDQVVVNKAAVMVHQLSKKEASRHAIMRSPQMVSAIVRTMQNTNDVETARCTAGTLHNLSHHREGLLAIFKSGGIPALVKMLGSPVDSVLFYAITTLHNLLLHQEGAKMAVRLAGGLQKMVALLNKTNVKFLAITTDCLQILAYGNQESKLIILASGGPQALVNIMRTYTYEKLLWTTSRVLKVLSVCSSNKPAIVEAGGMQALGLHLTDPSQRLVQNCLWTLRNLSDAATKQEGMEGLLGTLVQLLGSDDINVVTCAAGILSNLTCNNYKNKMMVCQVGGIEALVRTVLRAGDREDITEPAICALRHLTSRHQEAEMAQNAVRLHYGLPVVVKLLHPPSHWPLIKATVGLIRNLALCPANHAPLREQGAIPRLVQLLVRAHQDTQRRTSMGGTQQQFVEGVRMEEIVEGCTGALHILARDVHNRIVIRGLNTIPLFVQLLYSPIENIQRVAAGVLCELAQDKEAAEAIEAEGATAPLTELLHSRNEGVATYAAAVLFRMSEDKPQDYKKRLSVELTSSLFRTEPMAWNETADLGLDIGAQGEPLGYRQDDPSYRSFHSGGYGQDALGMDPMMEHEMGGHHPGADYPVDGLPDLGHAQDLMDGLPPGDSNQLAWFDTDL
Experimental: To identify a covalent degrader of CTNNB1, we screened a library of 2100 cysteine-reactive covalent ligands consisting of acrylamides and chloroacetamides in HEK293 cells expressing CTNNB1 with a N-terminal HiBiT tag incorporated into the endogenous loci of CTNNB1. We identified 17 hits lowered CTNNB1 levels.
Covalent ligand screen and dose responses were conducted using Promega Nano-Glo HiBiT Lytic Detection System (N3040) and CellTiter-Glo 2.0 Assay (G9242). HiBiT cells were seeded into 96-well plates (Corning 3917) at 35,000 cells per 100 μL of media and were left overnight to adhere. Cells were treated with 25 μL of media containing 1:125 dilution from a 1000×DMSO compound stock and treated for either 6 hrs, 12 hrs, or 24 hrs. […] 125 μL of CTG or Lytic detection system reagents were added to each well. To assess the cells in the supernatant, half of the plates had the media removed prior to the addition of CTG or lytic detection system reagents. Plates were rocked for 15 minutes prior to their luminescence readout on the Tecan Spark Plate reader (30086376).

[3] = target: T2, proteome-wide cysteine-reactivity (C619 on CTNNB1) (Homo sapiens, UniProt P35222); assay: isoDTB-ABPP, proteome-wide cysteine-reactivity in cells; format: cell-based
T2 construct: endogenous in cells
T2 sequence (P35222 1-781): T1 sequence (P35222 1-781)
From the text: We next wanted to confirm that EN83 engages CTNNB1 in cells. […] We next performed a mass spectrometry-based ABPP or isodesthiobiotin-ABPP (isoDTB-ABPP) to map overall proteome-wide cysteine-reactivity of EN83 in cells using previously established methods. […] Among the off-targets of EN83, none of the targets were within the Wnt signaling pathway, including AXIN1, BTRC, or GSK3A or GSK3B.

[4] = target: T3, pure human CTNNB1 protein (Homo sapiens, UniProt P35222); assay: Gel-based ABPP with CTNNB1 pure protein (IA-Rhodamine displacement); format: binding; conditions: displacement of cysteine-reactive fluorescent probe
T3 sequence (P35222 1-781): T1 sequence (P35222 1-781)
Experimental: CTNNB1 pure protein (0.1 μg/25 μL in PBS) was treated with either DMSO vehicle or covalent ligand at 37° C. for 30 min, and subsequently treated with 0.1 μM IA-Rhodamine (Setareh Biotech) for 1 h at RT in the dark. The reaction was stopped by addition of 4×reducing Laemmli SDS sample loading buffer (Alfa Aesar). After boiling at 95° C. for 5 min, the samples were separated on precast 4-20% Criterion TGX gels (Bio-Rad) and were analyzed by in-gel fluorescence using a ChemiDoc MP (Bio-Rad).

[5] = target: T4, CTNNB1 (Homo sapiens, UniProt P35222); assay: Cellular thermal shift assay; format: cell-based; conditions: cellular treatment
T4 construct: endogenous in cells; host or cells: HEK293T, HT29, COLO-201, SW480
T4 sequence (P35222 1-781): T1 sequence (P35222 1-781)

[6] = target: T4, CTNNB1; assay: Western blotting of CTNNB1 in cells; format: cell-based; conditions: proteasome dependence
Experimental: Pelleted cells are lysed with CST buffer containing protease inhibitor cocktail (Pierce A32955). Samples were centrifuged at 20,000 g for 20 min at 4° C. to remove cell debris. Samples' protein content was normalized to run 30 μg per well. Samples were then boiled for 8 min at 90° C. after addition of 4×reducing Laemmli SDS sample loading buffer (Alfa Aesar) and ran on precast 4-20% Criterion TGX gels (Bio-Rad).
Antibodies to CTNNB1 (Cell Signaling Technology, 8814S), GAPDH (Proteintech Group Inc., 60004-1-Ig or Cell Signaling Technology, 14C10), and DDDDK tag (Abcam, ab205606) were diluted per recommended manufacturers' procedures. Proteins were resolved by SDS/PAGE and transferred to nitrocellulose membranes using the BioRad system (1704271 and 1704150). Blots were blocked with 5% BSA in Tris-buffered saline containing Tween 20 (TBST) solution for 1 hour at room temperature, washed in TBST, and probed with primary antibody diluted in recommended diluent per manufacturer overnight at 4° C. Following washes with TBST, the blots were incubated in the dark with secondary antibodies purchased from Ly-Cor and used at 1:10,000 dilution in 5% BSA in TBST at room temperature. Blots were visualized using an Odyssey Li-Cor scanner after additional washes. If additional primary antibody incubations were required the membrane was stripped using ReBlot Plus Strong Antibody Stripping Solution (EMD Millipore, 2504), washed and blocked again before being reincubated with primary antibody.

[7] = target: T5, CTNNB1 pure protein (Homo sapiens, UniProt P35222); assay: NF686 probe labeling on CTNNB1 pure protein; format: binding; conditions: alkyne probe, click to fluorescent azide, in-gel fluorescence
T5 sequence (P35222 1-781): T1 sequence (P35222 1-781)
Experimental: CTNNB1 pure protein (0.2 μg/50 μL in PBS) was treated with either DMSO vehicle or NF686 at 37° C. for 30 min. Click reagents Azide-Fluor 545 (Click Chemistry Tools, Inc. AZ109-5), Copper (II) Sulfate, and TBTA (TCI Chemicals, T2993) were added to have a final concentration of 21.8 μM, 873.4 μM, and 47.2 μg/mL, respectively, for 1 hr at RT in the dark. The reaction was stopped by addition of 4×reducing Laemmli SDS sample loading buffer (Alfa Aesar). After boiling samples at 95° C. for 5 min, the samples were separated on precast 4-20% Criterion TGX gels (Bio-Rad). Probe-labeled proteins were analyzed by in-gel fluorescence using a ChemiDoc MP (Bio-Rad).

[8] = target: T4, CTNNB1; assay: Alkyne probe enrichment of CTNNB1 from cells; format: cell-based; conditions: in cells; GAPDH as unrelated target

SMILES	CTNNB1 HiBiT levels [2]	binding to CTNNB1 by gel-based ABPP [4]	CTNNB1 protein levels by Western blotting [6]	other results
COc1ccc(OC)c(C2CCCN2C(=O)CCl)c1 (racemic) [EN83]	dose-responsive CTNNB1 loss that was significantly attenuated by proteasome or NEDDylation inhibition	dose-responsively displaced cysteine-reactive fluorescent probe labeling of pure human CTNNB1 protein	–	effect of cysteine mutation on CTNNB1 degradation [1]: mutation of C466, C520, or C619, but not C439, to serines significantly attenuated CTNNB1 degradation in cells; number of other targets significantly engaged by over 50% ([3]; among 8251 cysteines detected and quantified, three biological replicates): 139; proteome-wide selectivity ([3]; isoDTB-ABPP in cells): only moderately selective; engagement of CTNNB1 cysteine in cells ([3]; isoDTB-ABPP, three biological replicates): significantly engaged C619 on CTNNB1; thermal stability of CTNNB1 in cells [5]: significant thermal destabilization of CTNNB1 in cells
CCC(=O)N1CCCC1c1cc(OC)ccc1OC (stereo not drawn) [NF602, 1-(2-(2,5-dimethoxyphenyl)pyrrolidin-1-yl)propan-1-one]	does not alter CTNNB1 levels	does not show binding to CTNNB1	does not alter CTNNB1 levels	–
C#CCCCNC(=O)c1ccc(OC)c([C@@H]2CCCN2C(=O)CCl)c1 [NF686, (S)-3-(1-(2-chloroacetyl)pyrrolidin-2-yl)-4-methoxy-N-(pent-4-yn-1-yl)benzamide]	–	–	–	direct probe labeling of pure CTNNB1 protein [7]: direct covalent dose-responsive probe labeling of pure CTNNB1 protein; enrichment of CTNNB1 from cells with alkyne probe [8]: CTNNB1 could be enriched from cells with the probes without enriching unrelated targets such as GAPDH
COc1ccc(C(F)(F)F)cc1C1CCCN1C(=O)CCl (stereo not drawn) [NF740, 2-chloro-1-(2-(2-methoxy-5-(trifluoromethyl)phenyl)pyrrolidin-1-yl)ethan-1-one]	lowering CTNNB1 HiBiT levels in HEK293 cells in a dose-responsive manner	tolerated	confirmed to be proteasome-dependent	–
COc1ccc(C(F)(F)F)c(C2CCCN2C(=O)CCl)c1 (stereo not drawn) [NF741, 2-chloro-1-(2-(5-methoxy-2-(trifluoromethyl)phenyl)pyrrolidin-1-yl)ethan-1-one]	lowering CTNNB1 HiBiT levels in HEK293 cells in a dose-responsive manner	tolerated	confirmed to be proteasome-dependent	–
COc1ccc(C(F)(F)F)c(C2CCCN2C(=O)/C=C/C(=O)c2ccccc2)c1 (stereo not drawn) [NF764, (E)-1-(2-(5-methoxy-2-(trifluoromethyl)phenyl)pyrrolidin-1-yl)-4-phenylbut-2-ene-1,4-dione]	more potent loss of CTNNB1 HiBiT levels	improved CTNNB1 binding	lowered CTNNB1 protein levels in cells in a proteasome-dependent manner	–
COc1ccc(C(F)(F)F)cc1C1CCCN1C(=O)/C=C/C(=O)c1ccccc1 (stereo not drawn) [NF765, (E)-1-(2-(2-methoxy-5-(trifluoromethyl)phenyl)pyrrolidin-1-yl)-4-phenylbut-2-ene-1,4-dione]	more potent loss of CTNNB1 HiBiT levels	improved CTNNB1 binding	lowered CTNNB1 protein levels in cells in a proteasome-dependent manner	–
